Measured values as given in patent publication US20070232615A1, “Chemical Compounds” (priority 2004, published 2007).

tested on: HIV; experiment: HOS HIV infectivity assay (Table 2, strain not given); format: cell-based; conditions: Human immunodeficiency virus 1, read-out: Activity Level
Protocol: HOS HIV-1 Infectivity Assay
Compounds were profiled against two HIV-1 viruses, the M-tropic (CCR5 utilizing) Ba-L strain and the T-tropic (CXCR4 utilizing) IIIB strain. Both viruses were propagated in human peripheral blood lymphocytes. Compounds were tested for there ability to block infection of the HOS cell line (expressing hCXCR4/hCCR5/hCD4/pHIV-LTR-luciferase) by either HIV-1 Ba-L or HIV-1 IIIB. Compound cytotoxicity was also examined in the absence of virus addition.
HOS HIV-1 Infectivity Assay Format
HOS cells (expressing hCXCR4/hCCR5/hCD4/pHIV-LTR-luciferase) were harvested and diluted in Dulbeccos modified Eagles media supplemented with 2% FCS and non-essential amino acid to a concentration of 60,000 cells/ml. The cells were plated into 96-well plates (100 ul per well) and the plates were placed in a tissue culture incubator (37° C.; 5% CO2/95% air) for a period of 24 h.
Subsequently, 50 ul of the desired drug solution (4 times the final concentration) was added to each well and the plates were returned to the tissue culture incubator (37° C.; 5% CO2/95% air) for 1 h. Following this incubation 50 ul of diluted virus was added to each well (approximately 2 million RLU per well of virus). The plates were returned to the tissue culture incubator (37° C.; 5% CO2/95% air) and were incubated for a further 96 h.
Following this incubation the endpoint for the virally infected cultures was quantified following addition of Steady-Glo Luciferase assay system reagent (Promega, Madison, Wis.). Cell viability or non-infected cultures was measured using a CellTiter-Glo luminescent cell viability assay system (Promega, Madison, Wis.). All luminescent readouts are performed on a Topcount luminescence detector (Packard, Meridien, Conn.).

SMILES | IC50 [nM]
CN1CCCN(c2cccc3nc(CN(C)[C@H]4CCCc5cccnc54)cn23)CC1 [Example 85, (8S)—N-Methyl-N-{[5-(4-methylhexahydro-1H-1,4-diazepin-1-yl)imidazo[1,2-a]pyridin-2-yl]methyl}-5,6,7,8-tetrahydro-8-quinolinamine] | < 100
CN1CCC(N(C)c2cccc3nc(CN(C)[C@H]4CCCc5cccnc54)cn23)C1 (stereo partly drawn) [Example 86, (8S)—N-Methyl-N-({5-[methyl(1-methyl-3-pyrrolidinyl)amino]imidazo[1,2-a]pyridin-2-yl}methyl)-5,6,7,8-tetrahydro-8-quinolinamine] | < 100
CN1CCC(N(C)c2cccc3nc(CN(C)[C@H]4CCCc5cccnc54)cn23)CC1 [Example 87, (8S)—N-Methyl-N-({5-[methyl(1-methyl-4-piperidinyl)amino]imidazo[1,2-a]pyridin-2-yl}methyl)-5,6,7,8-tetrahydro-8-quinolinamine] | < 100
CC(C)N1CCN(c2cccc3nc(CN(C)[C@H]4CCCc5cccnc54)cn23)CC1 [Example 89, (8S)—N-Methyl-N-({5-[4-(1-methylethyl)-1-piperazinyl]imidazo[1,2-a]pyridin-2-yl}methyl)-5,6,7,8-tetrahydro-8-quinolinamine] | < 100
COc1ccc([C@H](C)N(Cc2cn3c(N4CC[C@@H](N(C)C)C4)cccc3n2)[C@H]2CCCc3cccnc32)cc1 [Example 95, (8S)—N-({5-[(3R)-3-(Dimethylamino)-1-pyrrolidinyl]imidazo[1,2-a]pyridin-2-yl}methyl)-N-{(1S)-1-[4-(methyloxy)phenyl]ethyl}-5,6,7,8-tetrahydro-8-quinolinamine] | 100 to 500
CCCN(Cc1cn2c(N3CC[C@@H](N(C)C)C3)cccc2n1)[C@H]1CCCc2cccnc21 [Example 97, (8S)—N-({5-[(3R)-3-(Dimethylamino)-1-pyrrolidinyl]imidazo[1,2-a]pyridin-2-yl}methyl)-N-propyl-5,6,7,8-tetrahydro-8-quinolinamine] | < 100
CC(C)N(Cc1cn2c(N3CC[C@@H](N(C)C)C3)cccc2n1)[C@H]1CCCc2cccnc21 [Example 98, (8S)—N-({5-[(3R)-3-(Dimethylamino)-1-pyrrolidinyl]imidazo[1,2-a]pyridin-2-yl}methyl)-N-(1-methylethyl)-5,6,7,8-tetrahydro-8-quinolinamine] | < 100
CN(C)[C@@H]1CCN(c2cccc3nc(CN(CC4CC4)[C@H]4CCCc5cccnc54)cn23)C1 [Example 99, (8S)—N-(Cyclopropylmethyl)-N-({5-[(3R)-3-(dimethylamino)-1-pyrrolidinyl]imidazo[1,2-a]pyridin-2-yl}methyl)-5,6,7,8-tetrahydro-8-quinolinamine] | < 100
CC(c1cn2c(N3CCN(C)CC3)cccc2n1)N(C)[C@H]1CCCc2cccnc21 (stereo partly drawn) [Example 100, (8S)—N-Methyl-N-{1-[5-(4-methyl-1-piperazinyl)imidazo[1,2-a]pyridin-2-yl]ethyl}-5,6,7,8-tetrahydro-8-quinolinamine] | < 100
CN(C)CCNc1cccc2nc(CN(C)[C@H]3CCCc4cccnc43)cn12 [Example 101, N,N-Dimethyl-N′-[2-({methyl[(8S)-5,6,7,8-tetrahydro-8-quinolinyl]amino}methyl)imidazo[1,2-a]pyridin-5-yl]-1,2-ethanediamine] | < 100
CN(Cc1cn2c(NCCN3CCCC3)cccc2n1)[C@H]1CCCc2cccnc21 [Example 102, (8S)—N-Methyl-N-[(5-{[2-(1-pyrrolidinyl)ethyl]amino}imidazo[1,2-a]pyridin-2-yl)methyl]-5,6,7,8-tetrahydro-8-quinolinamine] | < 100
CN(Cc1cn2c(NCCN3CCCCC3)cccc2n1)[C@H]1CCCc2cccnc21 [Example 103, (8S)—N-Methyl-N-[(5-{[2-(1-piperidinyl)ethyl]amino}imidazo[1,2-a]pyridin-2-yl)methyl]-5,6,7,8-tetrahydro-8-quinolinamine] | < 100
CN(C)CCOc1cccc2nc(CN(C)[C@H]3CCCc4cccnc43)cn12 [Example 104, (8S)—N-[(5-{[2-(Dimethylamino)ethyl]oxy}imidazo[1,2-a]pyridin-2-yl)methyl]-N-methyl-5,6,7,8-tetrahydro-8-quinolinamine] | < 100
CN(Cc1cn2c(OCCN3CCCC3)cccc2n1)[C@H]1CCCc2cccnc21 [Example 105, (8S)—N-Methyl-N-[(5-{[2-(1-pyrrolidinyl)ethyl]oxy}imidazo[1,2-a]pyridin-2-yl)methyl]-5,6,7,8-tetrahydro-8-quinolinamine] | < 100
CN(Cc1cn2c(OCCN3CCCCC3)cccc2n1)[C@H]1CCCc2cccnc21 [Example 106, (8S)—N-Methyl-N-[(5-{[2-(1-piperidinyl)ethyl]oxy}imidazo[1,2-a]pyridin-2-yl)methyl]-5,6,7,8-tetrahydro-8-quinolinamine] | < 100

Second part, the compound after the results:

IC50 [nM] | SMILES
< 100 | CN(C)[C@@H]1CCN(c2cccc3nc(CN(C)[C@H]4CCCc5cccnc54)cn23)C1 [Example 83, (8S)—N-({5-[(3R)-3-(Dimethylamino)-1-pyrrolidinyl]imidazo[1,2-a]pyridin-2-yl}methyl)-N-methyl-5,6,7,8-tetrahydro-8-quinolinamine]
< 100 | CN(Cc1cn2c(N3CCCNCC3)cccc2n1)[C@H]1CCCc2cccnc21 [Example 84, (8S)—N-{[5-(Hexahydro-1H-1,4-diazepin-1-yl)imidazo[1,2-a]pyridin-2-yl]methyl}-N-methyl-5,6,7,8-tetrahydro-8-quinolinamine]
< 100 | CCN1CCN(c2cccc3nc(CN(C)[C@H]4CCCc5cccnc54)cn23)CC1 [Example 88, (8S)—N-{[5-(4-Ethyl-1-piperazinyl)imidazo[1,2-a]pyridin-2-yl]methyl}-N-methyl-5,6,7,8-tetrahydro-8-quinolinamine]
< 100 | CN(C)[C@H]1CCN(c2cccc3nc(CN(C)[C@H]4CCCc5cccnc54)cn23)C1 [Example 91, (8S)—N-({5-[(3S)-3-(Dimethylamino)-1-pyrrolidinyl]imidazo[1,2-a]pyridin-2-yl}methyl)-N-methyl-5,6,7,8-tetrahydro-8-quinolinamine]
< 100 | CN(Cc1cn2c(N3CC[C@@H](N)C3)cccc2n1)[C@H]1CCCc2cccnc21 [Example 92, (8S)—N-({5-[(3R)-3-Amino-1-pyrrolidinyl]imidazo[1,2-a]pyridin-2-yl}methyl)-N-methyl-5,6,7,8-tetrahydro-8-quinolinamine]
< 100 | CCN(CC)[C@@H]1CCN(c2cccc3nc(CN(C)[C@H]4CCCc5cccnc54)cn23)C1 [Example 93, (8S)—N-({5-[(3R)-3-(Diethylamino)-1-pyrrolidinyl]imidazo[1,2-a]pyridin-2-yl}methyl)-N-methyl-5,6,7,8-tetrahydro-8-quinolinamine]
< 100 | CCN(Cc1cn2c(N3CC[C@@H](N(C)C)C3)cccc2n1)[C@H]1CCCc2cccnc21 [Example 96, (8S)—N-({5-[(3R)-3-(Dimethylamino)-1-pyrrolidinyl]imidazo[1,2-a]pyridin-2-yl}methyl)-N-ethyl-5,6,7,8-tetrahydro-8-quinolinamine]
